These results are taken from ChEMBL document CHEMBL2417385, “A new strategy for the synthesis of crucigasterin A, and cytotoxic activity of this compound and its related analogues” (Bioorg Med Chem Lett, 2013).

Common to all, as to type: functional, cell-based
In one assay the test system is MCF7. The assay can be described thus: Cytotoxicity against human MCF7 cells after 2 days by MTT assay. Particulars: MCF7, 48 h. (In general: Tetrazolium assays rely on reduction of a dye to a coloured formazan, in cell work by metabolically active cells.)
Another assay concerns MDA-MB-231. The assay is described as follows: Cytotoxicity against human MDA-MB-231 cells after 2 days by MTT assay. As to conditions: MDA-MB-231, 48 h.
The subject of another assay is HeLa. The assay is described as follows: Cytotoxicity against human HeLa cells assessed as growth inhibition after 2 days by MTT assay. Particulars: 48 h.
For a further assay, the system named is A549. The assay is described as follows: Cytotoxicity against human A549 cells after 2 days by MTT assay. As to conditions: A549, 48 h.

Each structure is given as a SMILES string.

On to `C=CCCCC/C=C/C=C/C[C@H](O)[C@H](C)N`, for which the IC50 in the assay with MCF7 is > 50 µM; in the assay with MDA-MB-231 it was 8.03 µM; in the assay on HeLa, 5.91 µM; with A549 it was 14.7 µM.

As to `C=CCCCCCC/C=C\C[C@H](O)[C@H](C)N`, the IC50 in the assay on MCF7 was 15.5 µM; in the assay on MDA-MB-231, 10.4 µM; in the assay with HeLa, 19.2 µM; with A549 it was > 50 µM.

`CCCCCC/C=C\CC/C=C/C[C@H](O)[C@H](C)N`: the IC50 in the assay with MCF7 was 13.5 µM; in the assay with MDA-MB-231 it was 12.7 µM; in the assay with HeLa, 39.7 µM; in the assay on A549, 7.81 µM.

As to `COc1cccc2c1C(=O)c1c(O)c3c(c(O)c1C2=O)C[C@@](O)(C(=O)CO)C[C@@H]3O[C@H]1C[C@H](N)[C@H](O)[C@H](C)O1` [DOXORUBICIN], the IC50 in the assay on MCF7 stood at 13.5 µM; with MDA-MB-231, 0.91 µM; in the assay on HeLa, 0.509 µM; in the assay with A549, 0.459 µM.

As usually defined, the IC50 is the point on the concentration scale where inhibition reaches its midpoint.
